These results are taken from patent US20240124483A1, “Methods for the Treatment of Fibrotic Disease” (SHY Therapeutics, LLC, priority 2021, published 2024).

For one assay, the system named is AKT phosphorylation. Nature of the assay: Western AKT Cell-Based Phosphorylation Assay. Conditions: Homo sapiens, PANC-1, 6 hours, EGF 1.5 ng/ml, read-out: % inh of AKT phosphorylation in PANC-1. As to the method:
Human tumor-derived pancreatic cancer cell line Panc-1 was purchased from American Type Culture Collection and grown in complete DMEM-High Glucose supplemented with penicillin (100 U/mL), streptomycin (100 μg/mL), and 10% heat-inactivated FBS at 37° C. in a humidified incubator with 5% CO2.
(§1) Method: Cells were plated at 350000 cells/well density in a 12-well plate, allowed 3 hours to adhere to the plate, then starved in the appropriate medium in the presence of 0.5% FBS overnight. The small molecules to be tested were added to the cells in the final concentration of 10 μM in the presence of 0.3% DMSO for 6 hours incubation at 37° C. Next, cells were stimulated with 1.5 ng/ml EGF for 15 minutes then cells were lysed with lysis buffer containing 1% Triton X-100, EDTA, and Halt™ Protease & Phosphatase Inhibitor Cocktail (Thermo Scientific). Protein concentration was assessed by BCA protein assay (Thermo Scientific). Phosphorylation level of Akt was determined by western blot.
(§2) Western blot protocol: Equal amounts of protein (15-50 μg) were separated by SDS-PAGE and transferred to nitrocellulose membranes (Invitrogen by Thermo Fisher Scientific). The membrane was stained with Ponceau S Stain (Boston BioProducts) to verify uniform protein loading. Membranes were blocked with 10% milk and phosphorylation levels of Akt were assessed by incubating overnight at 4° C. with anti-phospho-Akt (Ser473) antibody (Cell Signaling) followed by HRP-conjugated secondary antibody (Jackson Immunoresearch, West Grove, PA). Bands were incubated in Amersham ECL Prime Western Blotting Detection Reagent (GE Healthcare) and visualized using the ChemiDoc MP imaging system (Bio-Rad).

Another assay concerns ERK1/2 phosphorylation. Nature of the assay: Western ERK1/2 Cell-Based Phosphorylation Assay. Conditions: Homo sapiens, PANC-1, 6 hours, EGF 1.5 ng/ml, read-out: % inh of ERK1/2 phosphorylation in PANC-1. As to the method:
Cell lines: Human tumor-derived pancreatic cancer cell line Panc-1 was purchased from American Type Culture Collection and grown in complete DMEM-High Glucose, supplemented with penicillin (100 U/mL), streptomycin (100 μg/mL), and 10% heat-inactivated FBS at 37° C. in a humidified incubator with 5% CO2.
as §1, with “C. For IC50 value determination, serial dilutions of compounds were added to cells under the same conditions.” for “C.”, “ERK1/2” for “Akt”
as §2, with “ERK1/2” for “Akt”, “anti-phospho-p44/42 (Thr202/Tyr204)” for “anti-phospho-Akt (Ser473)”

Consider `COc1cccc(-c2sc3nc(-c4nccn4C)nc(N[C@@H]4CC[C@@H](OC)C4)c3c2C)c1F` (racemic) [Compound 43, rac-6-(2-Fluoro-3-methoxyphenyl)-N-((1R,3R)-3-methoxycyclopentyl)-5-methyl-2-(1-methyl-1H-imidazol-2-yl)thieno[2,3-d]pyrimidin-4-amine], for which the inhibition at 10 µM is 0% in the assay with AKT phosphorylation and 46 to 75% in the assay on ERK1/2 phosphorylation.
In the same order, the values of `Cc1c(-c2ccn(C(C)C)n2)sc2nc(-c3nccn3C)nc(NCC3CCCO3)c12` (racemic) [Compound 26, rac-6-(1-Isopropyl-1H-pyrazol-3-yl)-5-methyl-2-(1-methyl-1H-imidazol-2-yl)-N-((tetrahydrofuran-2-yl)methyl)thieno[2,3-d]pyrimidin-4-amine] are 0% and 0%.
Consider `COCCCOc1nc(-c2nccn2C)nc2sc(-c3ccn(C(C)C)n3)c(C)c12` [Compound 32, 6-(1-Isopropyl-1H-pyrazol-3-yl)-4-(3-methoxypropoxy)-5-methyl-2-(1-methyl-1H-imidazol-2-yl)thieno[2,3-d]pyrimidine], for which the inhibition at 10 µM is 1 to 25% in the assay on AKT phosphorylation and 0% with ERK1/2 phosphorylation.
In the same order, the values of `COCCCn1c(-c2nccn2C)nc2sc(-c3ccn(C(C)C)n3)c(C)c2c1=O` [Compound 31, 6-(1-Isopropyl-1H-pyrazol-3-yl)-3-(3-methoxypropyl)-5-methyl-2-(1-methyl-1H-imidazol-2-yl)thieno[2,3-d]pyrimidin-4(3H)-one] are 0% and 0%.
In the same order, the values of `COCCOc1nc(-c2nccn2C)nc2sc(-c3ccn(C(C)C)n3)c(C)c12` [Compound 30, 6-(1-Isopropyl-1H-pyrazol-3-yl)-4-(2-methoxyethoxy)-5-methyl-2-(1-methyl-1H-imidazol-2-yl)thieno[2,3-d]pyrimidine] are 0% and 0%.
On the same counts, the results for `COc1cc(Cn2c(-c3nccn3C)nc3sc(-c4ccn(C(C)C)n4)c(C)c3c2=O)ncn1` [Compound 35, 6-(1-Isopropyl-1H-pyrazol-3-yl)-3-((6-methoxypyrimidin-4-yl)methyl)-5-methyl-2-(1-methyl-1H-imidazol-2-yl)thieno[2,3-d]pyrimidin-4(3H)-one] are 0% and 0%.
In the case of `COCCCOc1nc(-c2nccn2C)nc2sc(-c3ccn(C(C)C)n3)c(-c3ccccc3)c12` [Compound 37, 6-(1-Isopropyl-1H-pyrazol-3-yl)-4-(3-methoxypropoxy)-2-(1-methyl-1H-imidazol-2-yl)-5-phenylthieno[2,3-d]pyrimidine], the inhibition at 10 µM in the assay with AKT phosphorylation and in the assay with ERK1/2 phosphorylation was 0% throughout.
With `COC1CCCN(c2nc(-c3nccn3C)nc3sc(-c4ccn(C(C)C)n4)c(C)c23)C1` (racemic) [Compound 14, rac-6-(1-Isopropyl-1H-pyrazol-3-yl)-4-(3-methoxypiperidin-1-yl)-5-methyl-2-(1-methyl-1H-imidazol-2-yl)thieno[2,3-d]pyrimidine], the values for the inhibition at 10 µM in the assay with AKT phosphorylation and with ERK1/2 phosphorylation were 46 to 75% and 76 to 100%, respectively.
In the same order, the values of `COCCn1ccc(-c2sc3nc(-c4nccn4C)nc(N[C@@H]4CC[C@H](OC)C4)c3c2C)n1` (racemic) [Compound 39, rac-N-((1R,3S)-3-Methoxycyclopentyl)-6-(1-(2-methoxyethyl)-1H-pyrazol-3-yl)-5-methyl-2-(1-methyl-1H-imidazol-2-yl)thieno[2,3-d]pyrimidin-4-amine] are 76 to 100% and 1 to 25%.
On the same counts, the results for `Cc1c(-c2ccn(C(C)C)n2)sc2nc(-c3nccn3C)nc(NCC3CN(C)CCO3)c12` (racemic) [Compound 25, rac-6-(1-Isopropyl-1H-pyrazol-3-yl)-5-methyl-2-(1-methyl-1H-imidazol-2-yl)-N-((4-methylmorpholin-2-yl)methyl)thieno[2,3-d]pyrimidin-4-amine] are 1 to 25% and 0%.
Turning to `Cc1c(-c2ccn(C(C)C)n2)sc2nc(-c3nccn3C)nc(NCCN3CCOCC3)c12` [Compound 22, 6-(1-Isopropyl-1H-pyrazol-3-yl)-5-methyl-2-(1-methyl-1H-imidazol-2-yl)-N-(2-morpholinoethyl)thieno[2,3-d]pyrimidin-4-amine], the inhibition at 10 µM with AKT phosphorylation is 1 to 25%; with ERK1/2 phosphorylation it was 0%.
On the same counts, the results for `COc1cccc(Nc2nc(-c3nccn3C)nc3sc(-c4ccn(C(C)C)n4)c(C)c23)c1` [Compound 17, 6-(1-Isopropyl-1H-pyrazol-3-yl)-N-(3-methoxyphenyl)-5-methyl-2-(1-methyl-1H-imidazol-2-yl)thieno[2,3-d]pyrimidin-4-amine] are 46 to 75% and 76 to 100%.
On the same counts, the results for `COCCCCn1c(-c2nccn2C)nc2sc(-c3ccn(C(C)C)n3)c(C)c2c1=O` [Compound 33, 6-(1-Isopropyl-1H-pyrazol-3-yl)-3-(4-methoxybutyl)-5-methyl-2-(1-methyl-1H-imidazol-2-yl)thieno[2,3-d]pyrimidin-4(3H)-one] are 0% and 0%.
In the case of `COCCOCCNc1nc(-c2nccn2C)nc2sc(-c3ccn(C(C)C)n3)c(C)c12` [Compound 21, 6-(1-Isopropyl-1H-pyrazol-3-yl)-N-(2-(2-methoxyethoxy)ethyl)-5-methyl-2-(1-methyl-1H-imidazol-2-yl)thieno[2,3-d]pyrimidin-4-amine], the inhibition at 10 µM was 1 to 25% in the assay on AKT phosphorylation and 0% with ERK1/2 phosphorylation.
On the same counts, the results for `COCC1(OC)CCN(c2nc(-c3nccn3C)nc3sc(-c4ccn(C(C)C)n4)c(C)c23)C1` (racemic) [Compound 27, rac-6-(1-Isopropyl-1H-pyrazol-3-yl)-4-(3-methoxy-3-(methoxymethyl)pyrrolidin-1-yl)-5-methyl-2-(1-methyl-1H-imidazol-2-yl)thieno[2,3-d]pyrimidine] are 26 to 45% and 1 to 25%.
On the same counts, the results for `COc1cccc(-c2sc3nc(-c4nccn4C)nc(N[C@H]4C[C@H](OC)C4)c3c2C)c1F` [Compound 42, 6-(2-Fluoro-3-methoxyphenyl)-N-((1r,3r)-3-methoxycyclobutyl)-5-methyl-2-(1-methyl-1H-imidazol-2-yl)thieno[2,3-d]pyrimidin-4-amine] are 26 to 45% and 46 to 75%.
On the same counts, the results for `COCCCn1c(-c2nccn2C)nc2sc(-c3ccn(C(C)C)n3)c(-c3ccccc3)c2c1=O` [Compound 36, 6-(1-Isopropyl-1H-pyrazol-3-yl)-3-(3-methoxypropyl)-2-(1-methyl-1H-imidazol-2-yl)-5-phenylthieno[2,3-d]pyrimidin-4(3H)-one] are 0% and 0%.
On to `COc1cc(Nc2nc(-c3nccn3C)nc3sc(-c4ccn(C(C)C)n4)c(C)c23)ncn1` [Compound 19, 6-(1-Isopropyl-1H-pyrazol-3-yl)-N-(6-methoxypyrimidin-4-yl)-5-methyl-2-(1-methyl-1H-imidazol-2-yl)thieno[2,3-d]pyrimidin-4-amine], for which the inhibition at 10 µM with AKT phosphorylation and in the assay with ERK1/2 phosphorylation was 76 to 100% each time.
For the molecule `COc1cccc(-c2sc3nc(-c4nccn4C)nc(N[C@@H]4CC[C@@H](OC)C4)c3c2-c2ccccc2)c1F` (racemic) [Compound 41, 6-(2-Fluoro-3-methoxyphenyl)-N-((1R,3R)-3-methoxycyclopentyl)-2-(1-methyl-1H-imidazol-2-yl)-5-phenylthieno[2,3-d]pyrimidin-4-amine], the inhibition at 10 µM with AKT phosphorylation and in the assay on ERK1/2 phosphorylation was 76 to 100% throughout.
